Assay results: US8101760B2, “Glucocorticoid receptor modulator and methods of use” (Eli Lilly and Company, priority 2007, dated 2012)

Columns and labels:
[1] = Metabolic profiling of plasma after in vivo administration, dog
[2] = molecular target: T1, human PR (progesterone receptor) (Homo sapiens, UniProt P06401); assay: Nuclear hormone receptor binding assay, PR
T1 construct: expressed in transfected cells; host or cells: HEK293 (lysate, '293-PR lysate')
T1 sequence (P06401 1-933): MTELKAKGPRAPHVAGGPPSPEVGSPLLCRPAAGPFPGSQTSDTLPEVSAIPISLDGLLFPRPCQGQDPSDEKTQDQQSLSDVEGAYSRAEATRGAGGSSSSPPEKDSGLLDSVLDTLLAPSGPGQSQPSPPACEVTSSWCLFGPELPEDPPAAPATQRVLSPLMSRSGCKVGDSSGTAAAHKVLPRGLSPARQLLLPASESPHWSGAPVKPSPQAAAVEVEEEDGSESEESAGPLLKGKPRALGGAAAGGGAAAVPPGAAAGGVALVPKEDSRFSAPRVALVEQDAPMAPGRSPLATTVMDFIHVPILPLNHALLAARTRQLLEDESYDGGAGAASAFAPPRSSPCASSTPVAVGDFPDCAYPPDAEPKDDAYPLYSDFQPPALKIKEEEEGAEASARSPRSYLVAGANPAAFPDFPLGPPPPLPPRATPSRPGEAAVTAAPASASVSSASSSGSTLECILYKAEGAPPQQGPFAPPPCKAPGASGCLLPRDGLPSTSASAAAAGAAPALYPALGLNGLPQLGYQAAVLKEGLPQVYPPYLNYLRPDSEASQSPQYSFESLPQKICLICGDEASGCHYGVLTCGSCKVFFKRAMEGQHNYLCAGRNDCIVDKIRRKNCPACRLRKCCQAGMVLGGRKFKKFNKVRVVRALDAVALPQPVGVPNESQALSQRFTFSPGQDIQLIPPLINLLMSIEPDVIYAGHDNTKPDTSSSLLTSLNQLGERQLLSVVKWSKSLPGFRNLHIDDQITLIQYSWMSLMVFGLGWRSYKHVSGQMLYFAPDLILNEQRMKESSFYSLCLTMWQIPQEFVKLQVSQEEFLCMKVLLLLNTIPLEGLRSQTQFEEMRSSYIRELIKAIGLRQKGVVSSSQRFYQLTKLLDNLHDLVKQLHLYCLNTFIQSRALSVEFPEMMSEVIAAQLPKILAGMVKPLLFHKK
Protocol: (§1) Cell lysates from human embryonic kidney HEK293 cells overexpressing human GR (glucocorticoid receptor), AR (androgen receptor), MR (mineralocorticoid receptor), or PR (progesterone receptor) are used for receptor-ligand competition binding assays to determine Ki values.
(§2) Briefly, steroid receptor competition binding assays are run in a buffer containing 20 mM Hepes buffer (pH=7.6), 0.2 mM EDTA, 75 mM NaCl, 1.5 mM MgCl2, 20% glycerol, 20 mM sodium molybdate, 0.2 mM DTT (dithiothreitol), 20 μg/mL aprotinin and 20 μg/mL leupeptin. Typically, steroid receptor binding assays include radio-labeled ligands, such as 0.3 nM [^3H]-dexamethasone for GR binding, 0.36 nM [^3H]-methyltrienolone for AR binding, 0.25 nM [^3H]-aldosterone for MR binding, and 0.29 nM [^3H]-methyltrienolone for PR binding, and either 20 μg 293-GR lysate, 22 μg 293-AR lysate, 20 μg 293-MR lysate or 40 μg 293-PR lysate per well. Assays are typically run in 96-well format. Competing test compounds are added at various concentrations ranging from about 0.01 nM to 10 μM. Non-specific binding is determined in the presence of 500 nM dexamethasone for GR binding, 500 nM aldosterone for MR binding, or 500 nM methyltrienolone for AR and PR binding. […] After an incubation of 2 hours, plates are read in a Wallac Microbeta counter. […]

[3] = Metabolic profiling of plasma after in vivo administration, rat
[4] = molecular target: T2, human GR (glucocorticoid receptor) (Homo sapiens, UniProt P04150); assay: Nuclear hormone receptor binding assay, GR; settings: HEK293 cell lysate expressing human GR, [3H]-dexamethasone; mean of 5 determinations
T2 construct: expressed in transfected cells; host or cells: HEK293 (lysate, '293-GR lysate')
T2 sequence (P04150 1-777): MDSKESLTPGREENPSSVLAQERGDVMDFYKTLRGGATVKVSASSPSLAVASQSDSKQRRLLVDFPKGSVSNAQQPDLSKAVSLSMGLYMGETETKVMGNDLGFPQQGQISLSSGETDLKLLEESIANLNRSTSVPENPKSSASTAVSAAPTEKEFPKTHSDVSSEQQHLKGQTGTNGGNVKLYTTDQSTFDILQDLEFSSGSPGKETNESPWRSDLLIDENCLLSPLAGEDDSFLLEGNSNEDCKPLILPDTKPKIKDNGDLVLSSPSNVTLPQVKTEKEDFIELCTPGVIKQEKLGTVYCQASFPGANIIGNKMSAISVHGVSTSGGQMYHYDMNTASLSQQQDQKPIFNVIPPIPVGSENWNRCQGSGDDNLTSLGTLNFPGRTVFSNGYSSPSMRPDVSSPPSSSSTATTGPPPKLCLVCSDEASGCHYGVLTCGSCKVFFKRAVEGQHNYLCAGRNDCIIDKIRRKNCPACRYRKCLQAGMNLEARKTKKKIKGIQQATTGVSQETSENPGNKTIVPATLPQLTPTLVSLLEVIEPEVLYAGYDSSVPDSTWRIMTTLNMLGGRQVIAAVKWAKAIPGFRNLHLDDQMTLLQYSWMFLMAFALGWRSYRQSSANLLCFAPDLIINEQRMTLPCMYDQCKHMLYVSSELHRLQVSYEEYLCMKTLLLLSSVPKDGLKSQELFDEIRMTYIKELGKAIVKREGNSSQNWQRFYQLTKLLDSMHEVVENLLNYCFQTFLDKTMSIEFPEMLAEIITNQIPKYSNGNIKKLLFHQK
Protocol: as §1, §2

Question: For `CC/C(=C1\c2ccc(Cl)cc2OCc2ncccc21)c1cccc(NS(C)(=O)=O)c1` [Compound (I), (E)-N-{3-[1-(8-Chloro-11H-10-oxa-1-aza-dibenzo[a,d]cyclohepten-5-ylidene)-propyl]-phenyl}-methanesulfonamide], which “circulating entity in plasma” value [1] is on record?
Answer: major circulating entity

Question: What about the Ki ([2]; HEK293 cell lysate expressing human PR, [3H]-methyltrienolone, mean of 5 determinations) of the same molecule?
Answer: 31 nM

Question: What about the “greater affinity for GR relative to PR” value ([2]; binding selectivity GR vs PR) of the same molecule?
Answer: ≥ 30 fold

Question: And the “circulating entity in plasma” value [3]?
Answer: major circulating entity

Question: What about the Ki [4] of the same molecule?
Answer: 0.35 nM
